Reference: patent publication US7572768B2, “Methods for identifying compounds for regulating muscle mass or function using corticotropin releasing factor receptors” (priority 2001, dated 2009)

Test system: disuse-induced atrophy of skeletal muscle
Assay: mouse leg casting disuse atrophy model
Assay type: in vivo
Conditions: ten days
Protocol: (§1) Legend: A—physiological saline (control); B—theophylline; C—sauvagine (0.03 mg/kg)+theophylline; D—sauvagine (0.1 mg/kg)+theophylline; E—sauvagine (0.3 mg/kg)+theophylline; *—p≦0.05 compared to saline. Following casting of the right hind leg, male mice were injected subcutaneously in the midscapular region twice daily, with sauvagine or vehicle control (physiological saline) for ten days at the daily delivered dose indicated. Sauvagine was co-administered with twice daily intra-peritoneal dosing of the phosphodiesterase inhibitor theophylline (30 mg/kg). On day ten, the medial gastrocnemius and tibialis anterior muscles were removed and weighed to determine the degree of atrophy.
as §1, with “B—urocortin” for “B—theophylline; C—sauvagine (0.03 mg/kg)+theophylline; D—sauvagine (0.1 mg/kg)+theophylline; E—sauvagine”, “urocortin” for “sauvagine”, “days. Urocortin was administered” for “days”, “doses indicated in the description of FIGS. 6A and 6B. Urocortin” for “daily delivered dose indicated. Sauvagine”
Legend: A—non casted muscle control; B—casted muscle, saline control; C—casted muscle, sauvagine (0.3 mg/kg)+theophylline (30 mg/kg); *—p≦0.05 compared to saline. Following casting of the right hind leg, male mice were injected subcutaneously in the midscapular region twice daily, with either sauvagine or vehicle control (physiological saline) for ten days at the doses indicated above. Sauvagine was co-administered 30 mg/kg theophylline. On day ten, the EDL and soleus muscles were removed and absolute force and mass measurements taken to determine the degree of atrophy.
The leg casting disuse atrophy model involves casting one hind leg of an animal from the knee down through the foot. Typically, muscle mass is reduced 20-40% after ten days of casting. Following casting, test compounds are administered by injection or by continuous infusion via implantation of an osmotic minipump (e.g., Alzet, Palo Alto, Calif.) to determine their effect on leg casting induced skeletal muscle atrophy. At various times following leg casting, the extent of atrophy in the affected muscles is analyzed as described above for the denervation model.
The extensor digitorum longus (EDL) and soleus muscles are removed, tendon-to-tendon from the casted mouse leg. A silk suture is tied to each tendon of the isolated muscles and the muscles are placed into a plexiglass chamber filled with Ringer solution (137 mM sodium chloride, 24 mM sodium bicarbonate, 11 mM glucose, 5 mM potassium chloride, 1 mM magnesium sulfate, 1 mM sodium phosphate, 0.025 mM tubocurarine, all at pH 7.4 and oxygenated with 95% oxygen/5% carbon dioxide) constantly bubbled with 95% oxygen/5% carbon dioxide maintained at 25° C. Muscles are aligned horizontally between a servomotor lever arm (Model 305B-LR Cambridge Technology Inc., Watertown Mass., USA) and the stainless steel hook of a force transducer (Model BG-50; Kulite Semiconductor Products Inc., Leonia, N.J., USA) and field stimulated by pulses transmitted between two platinum electrodes placed longitudinally on either side of the muscle. Square wave pulses (0.2 ms duration) generated by a personal computer with a Labview board (Model PCI-MIO 16E-4), Labview Inc., Austin, Tex., USA) are amplified (Acurus power amplifier model A25, Dobbs Ferry, N.Y., USA) to increase titanic contraction. Stimulation voltage and muscle length (Lo) are adjusted to obtain maximum isometric twitch force. Maximum titanic force production (Po) is determined from the plateau of the frequency-force relationship.

[1] = FIG. 9A, male mice, 0.3 mg/kg s.c. twice daily + theophylline 30 mg/kg

CC[C@H](C)[C@H](NC(=O)[C@@H](NC(=O)[C@H](CC(=O)O)NC(=O)[C@H](CC(C)C)NC(=O)[C@H](CC(C)C)NC(=O)[C@H](CC(C)C)NC(=O)[C@H](CCCNC(=N)N)NC(=O)[C@H](CC(N)=O)NC(=O)[C@H](CC(N)=O)NC(=O)[C@H](C)NC(=O)[C@H](C)NC(=O)[C@H](CCC(N)=O)NC(=O)[C@H](CCC(N)=O)NC(=O)[C@H](CCCCN)NC(=O)[C@H](CCC(=O)O)NC(=O)[C@H](CCCCN)NC(=O)[C@H](CCC(=O)O)NC(=O)[C@H](CCC(N)=O)NC(=O)[C@H](CCCCN)NC(=O)[C@H](CCC(=O)O)NC(=O)[C@@H](NC(=O)[C@H](CCC(=O)O)NC(=O)[C@@H](NC(=O)[C@H](CCSC)NC(=O)[C@H](CCCCN)NC(=O)[C@H](CCCNC(=N)N)NC(=O)[C@H](CC(C)C)NC(=O)[C@H](CC(C)C)NC(=O)[C@H](CCC(=O)O)NC(=O)[C@H](CC(C)C)NC(=O)[C@H](CO)NC(=O)[C@H](CC(C)C)NC(=O)[C@H](CC(=O)O)NC(=O)[C@@H](NC(=O)[C@H](CO)NC(=O)[C@@H](NC(=O)[C@@H]1CCCN1C(=O)[C@@H]1CCCN1C(=O)CNC(=O)[C@@H]1CCC(=O)N1)[C@@H](C)CC)[C@@H](C)CC)[C@@H](C)CC)[C@@H](C)CC)[C@@H](C)O)C(N)=O [sauvagine]
disuse-induced atrophy of the tibialis anterior muscle (muscle weight) (FIG. 4A, casted leg, male mice, 0.03-0.3 mg/kg s.c. twice daily + theophylline 30 mg/kg i.p.): inhibits disuse-induced atrophy | hypertrophy of the tibialis anterior muscle of the non-casted leg (FIG. 4A, non-casted leg, 0.03-0.3 mg/kg s.c. twice daily + theophylline 30 mg/kg i.p.): statistically significant hypertrophy | disuse-induced atrophy of the medial gastrocnemius muscle (muscle weight) (FIG. 4B, casted leg, male mice, 0.03-0.3 mg/kg s.c. twice daily + theophylline 30 mg/kg i.p.): inhibits disuse-induced atrophy | hypertrophy of the medial gastrocnemius muscle of the non-casted leg (FIG. 4B, non-casted leg, 0.03-0.3 mg/kg s.c. twice daily + theophylline 30 mg/kg i.p.): statistically significant hypertrophy | disuse-induced loss of EDL muscle mass [1]: inhibits disuse-induced loss | disuse-induced loss of soleus muscle mass [1]: inhibits disuse-induced loss | loss of muscle function as assessed by measurement of absolute force (FIG. 9B, EDL and soleus muscles, 0.3 mg/kg s.c. twice daily + theophylline 30 mg/kg): inhibits loss of muscle function
